One may read the residual activity as what remains of the control signal, in per cent. Broadly, the inhibition is the change of the read-out against control, counted positive when it falls.

Assay [1] concerns the target Phosphatidylinositol 4,5-bisphosphate 3-kinase catalytic subunit beta isoform (Homo sapiens) (UniProt P42338). Conditions: Compound concentration 1000.0 nM.
Assay [2] has as its target Tyrosine-protein kinase Blk (Homo sapiens) (UniProt P51451). Conditions: Compound concentration 1000.0 nM.
Assay [3] concerns the target Non-receptor tyrosine-protein kinase TYK2 (Homo sapiens) (UniProt P29597). To be noted: Compound concentration 1000.0 nM.
In assay [4] the target is Tyrosine-protein kinase Lck (Homo sapiens) (UniProt P06239). To be noted: Compound concentration 1000.0 nM.
Assay [5] concerns the target TGF-beta receptor type-2 (Homo sapiens) (UniProt P37173). To be noted: Compound concentration 1000.0 nM.
In assay [6] the test system is Phosphatidylinositol 4,5-bisphosphate 3-kinase catalytic subunit alpha isoform (Homo sapiens), P42336 [H1047Y]. Conditions: Compound concentration 1000.0 nM.
Assay [7] deals with Death-associated protein kinase 1 (Homo sapiens) (UniProt P53355). Conditions: Compound concentration 1000.0 nM.
The target of assay [8] is T1, Ephrin type-B receptor 1 (Homo sapiens) (UniProt P54762).
T1 sequence (whole entry): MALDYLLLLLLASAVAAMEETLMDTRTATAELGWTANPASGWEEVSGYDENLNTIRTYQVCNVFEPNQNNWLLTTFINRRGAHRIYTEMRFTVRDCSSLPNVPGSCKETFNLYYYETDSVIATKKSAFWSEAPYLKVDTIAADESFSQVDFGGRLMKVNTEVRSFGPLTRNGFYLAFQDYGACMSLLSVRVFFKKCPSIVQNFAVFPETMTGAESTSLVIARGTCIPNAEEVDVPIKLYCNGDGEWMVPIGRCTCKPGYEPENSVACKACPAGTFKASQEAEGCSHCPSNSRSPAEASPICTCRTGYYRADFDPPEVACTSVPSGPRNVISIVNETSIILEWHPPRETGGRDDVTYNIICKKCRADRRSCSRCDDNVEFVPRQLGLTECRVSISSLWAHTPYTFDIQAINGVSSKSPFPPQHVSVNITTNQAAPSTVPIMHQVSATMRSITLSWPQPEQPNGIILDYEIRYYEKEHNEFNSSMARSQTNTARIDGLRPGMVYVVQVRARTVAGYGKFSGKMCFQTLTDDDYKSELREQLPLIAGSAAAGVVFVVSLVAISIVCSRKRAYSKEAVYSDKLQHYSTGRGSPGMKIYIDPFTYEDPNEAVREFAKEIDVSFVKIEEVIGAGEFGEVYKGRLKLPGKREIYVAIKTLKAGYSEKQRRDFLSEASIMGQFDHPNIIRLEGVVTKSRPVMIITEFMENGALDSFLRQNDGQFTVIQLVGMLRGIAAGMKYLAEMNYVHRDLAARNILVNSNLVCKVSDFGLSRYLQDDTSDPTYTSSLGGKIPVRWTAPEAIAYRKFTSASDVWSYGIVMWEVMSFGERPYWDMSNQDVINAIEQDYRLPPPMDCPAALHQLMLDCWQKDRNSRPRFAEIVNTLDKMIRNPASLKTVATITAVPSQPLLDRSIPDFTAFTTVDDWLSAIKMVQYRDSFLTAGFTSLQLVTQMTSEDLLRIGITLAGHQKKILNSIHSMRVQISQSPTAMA
To be noted: Compound concentration 1000.0 nM.

In assay [9] the test system is Tyrosine-protein kinase ABL1 (Homo sapiens), P00519 [F317L]. Conditions: Compound concentration 1000.0 nM.
Tyrosine-protein kinase ABL1 (Homo sapiens), P00519 [F317L], sequence (P00519 whole entry F317L): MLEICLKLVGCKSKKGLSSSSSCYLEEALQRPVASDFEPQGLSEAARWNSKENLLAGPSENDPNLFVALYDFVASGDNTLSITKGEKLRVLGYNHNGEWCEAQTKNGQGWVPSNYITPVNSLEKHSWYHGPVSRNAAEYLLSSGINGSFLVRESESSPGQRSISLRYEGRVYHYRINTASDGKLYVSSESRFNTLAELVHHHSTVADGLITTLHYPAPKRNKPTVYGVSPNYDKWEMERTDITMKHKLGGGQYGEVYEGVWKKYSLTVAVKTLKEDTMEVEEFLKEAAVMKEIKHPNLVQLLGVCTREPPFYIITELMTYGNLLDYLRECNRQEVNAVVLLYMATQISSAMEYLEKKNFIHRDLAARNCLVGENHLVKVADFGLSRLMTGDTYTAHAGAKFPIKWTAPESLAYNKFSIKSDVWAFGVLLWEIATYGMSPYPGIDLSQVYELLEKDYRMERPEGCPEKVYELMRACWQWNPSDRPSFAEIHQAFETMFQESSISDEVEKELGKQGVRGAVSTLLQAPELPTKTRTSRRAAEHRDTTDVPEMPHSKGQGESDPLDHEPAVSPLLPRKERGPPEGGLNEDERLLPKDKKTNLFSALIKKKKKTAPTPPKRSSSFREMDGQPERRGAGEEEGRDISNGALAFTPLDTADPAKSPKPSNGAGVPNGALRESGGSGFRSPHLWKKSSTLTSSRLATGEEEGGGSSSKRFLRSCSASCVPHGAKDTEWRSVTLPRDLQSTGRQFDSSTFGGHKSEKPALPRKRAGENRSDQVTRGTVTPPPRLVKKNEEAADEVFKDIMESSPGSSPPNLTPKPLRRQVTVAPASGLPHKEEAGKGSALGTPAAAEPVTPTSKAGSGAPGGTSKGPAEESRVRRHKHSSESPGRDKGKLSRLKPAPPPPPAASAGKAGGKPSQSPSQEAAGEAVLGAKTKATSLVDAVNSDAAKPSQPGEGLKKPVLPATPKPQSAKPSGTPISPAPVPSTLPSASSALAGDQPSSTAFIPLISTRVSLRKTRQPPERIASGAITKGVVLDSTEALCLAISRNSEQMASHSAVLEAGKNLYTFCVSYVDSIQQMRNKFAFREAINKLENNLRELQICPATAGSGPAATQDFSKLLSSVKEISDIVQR
Assay [10] concerns the target Tyrosine-protein kinase JAK2 (Homo sapiens) (UniProt O60674). Conditions: Compound concentration 1000.0 nM.
In assay [11] the target is 5-hydroxytryptamine receptor 1E (Homo sapiens) (UniProt P28566). Conditions: Compound concentration 10.0 uM.
Assay [12] has as its target Serine/threonine-protein kinase LATS1 (Homo sapiens) (UniProt O95835). Conditions: Compound concentration 1000.0 nM.
The target in assay [13] is Phosphatidylinositol 4-kinase beta (Homo sapiens) (UniProt Q9UBF8). To be noted: Compound concentration 1000.0 nM.
For assay [14], the target named is Ribosomal protein S6 kinase alpha-6 (Homo sapiens) (UniProt Q9UK32). Conditions: Compound concentration 1000.0 nM.
Ribosomal protein S6 kinase alpha-6 (Homo sapiens), sequence (Q9UK32 whole entry): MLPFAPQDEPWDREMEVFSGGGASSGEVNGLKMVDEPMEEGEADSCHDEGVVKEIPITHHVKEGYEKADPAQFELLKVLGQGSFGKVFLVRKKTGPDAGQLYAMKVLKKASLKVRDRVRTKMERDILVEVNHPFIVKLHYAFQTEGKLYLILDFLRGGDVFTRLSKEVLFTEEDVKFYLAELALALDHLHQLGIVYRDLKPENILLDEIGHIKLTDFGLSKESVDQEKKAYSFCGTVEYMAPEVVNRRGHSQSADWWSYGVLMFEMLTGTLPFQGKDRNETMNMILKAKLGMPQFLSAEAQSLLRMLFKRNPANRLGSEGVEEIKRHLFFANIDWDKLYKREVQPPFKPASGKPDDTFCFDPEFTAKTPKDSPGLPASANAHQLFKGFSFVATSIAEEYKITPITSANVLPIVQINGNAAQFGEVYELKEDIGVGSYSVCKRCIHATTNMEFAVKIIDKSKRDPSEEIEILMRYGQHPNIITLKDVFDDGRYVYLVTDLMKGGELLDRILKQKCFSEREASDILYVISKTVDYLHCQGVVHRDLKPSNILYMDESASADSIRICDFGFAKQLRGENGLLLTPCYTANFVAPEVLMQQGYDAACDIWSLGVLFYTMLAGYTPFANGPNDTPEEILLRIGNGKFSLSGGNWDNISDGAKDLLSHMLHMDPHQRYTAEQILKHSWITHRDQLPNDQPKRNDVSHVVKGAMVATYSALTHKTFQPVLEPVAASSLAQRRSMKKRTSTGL
Assay [15] deals with Serine/threonine-protein kinase 16 (Homo sapiens) (UniProt O75716). Conditions: Compound concentration 1000.0 nM.
Serine/threonine-protein kinase 16 (Homo sapiens), sequence (O75716 whole entry): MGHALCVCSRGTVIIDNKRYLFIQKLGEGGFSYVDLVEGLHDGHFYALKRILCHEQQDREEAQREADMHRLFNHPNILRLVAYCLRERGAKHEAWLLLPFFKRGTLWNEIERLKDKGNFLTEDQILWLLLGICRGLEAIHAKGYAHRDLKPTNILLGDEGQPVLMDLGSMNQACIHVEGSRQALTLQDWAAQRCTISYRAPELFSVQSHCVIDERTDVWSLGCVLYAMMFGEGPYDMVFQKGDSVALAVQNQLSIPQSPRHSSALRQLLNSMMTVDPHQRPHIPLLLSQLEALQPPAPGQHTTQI
In assay [16] the test system is Tyrosine-protein kinase ABL1 (Homo sapiens), P00519 [F317L]. To be noted: Compound concentration 1000.0 nM. The source holds these as a separate data set.
The target in assay [17] is T2, Tyrosine-protein kinase receptor TYRO3 (Homo sapiens) (UniProt Q06418).
T2 sequence (whole entry): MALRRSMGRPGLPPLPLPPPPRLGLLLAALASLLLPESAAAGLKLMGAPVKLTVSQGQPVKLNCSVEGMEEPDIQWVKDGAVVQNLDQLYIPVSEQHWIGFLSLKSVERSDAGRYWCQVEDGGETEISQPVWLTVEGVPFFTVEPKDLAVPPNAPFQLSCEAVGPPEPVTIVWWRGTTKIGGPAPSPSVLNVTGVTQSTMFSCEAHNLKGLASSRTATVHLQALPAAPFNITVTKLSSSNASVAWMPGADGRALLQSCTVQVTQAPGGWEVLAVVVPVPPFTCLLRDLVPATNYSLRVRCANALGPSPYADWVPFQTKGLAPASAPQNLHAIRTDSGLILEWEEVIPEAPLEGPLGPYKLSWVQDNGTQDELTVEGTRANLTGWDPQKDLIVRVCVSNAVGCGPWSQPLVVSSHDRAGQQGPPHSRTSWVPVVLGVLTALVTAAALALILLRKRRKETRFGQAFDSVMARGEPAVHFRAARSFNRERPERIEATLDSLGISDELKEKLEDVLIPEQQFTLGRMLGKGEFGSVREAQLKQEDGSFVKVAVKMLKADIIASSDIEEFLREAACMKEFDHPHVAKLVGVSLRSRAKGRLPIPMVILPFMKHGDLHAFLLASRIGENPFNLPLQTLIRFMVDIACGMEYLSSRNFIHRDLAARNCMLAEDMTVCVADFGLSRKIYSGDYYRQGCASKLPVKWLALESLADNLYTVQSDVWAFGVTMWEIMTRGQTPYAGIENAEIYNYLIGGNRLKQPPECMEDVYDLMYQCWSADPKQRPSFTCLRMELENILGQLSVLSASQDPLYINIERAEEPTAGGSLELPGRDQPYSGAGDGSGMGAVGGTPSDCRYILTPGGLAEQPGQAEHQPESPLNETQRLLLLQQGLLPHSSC
To be noted: Compound concentration 1000.0 nM.

Assay [18] concerns the target Receptor-type tyrosine-protein kinase FLT3 (Homo sapiens) (UniProt P36888). To be noted: Compound concentration 1000.0 nM.

SMILES strings stand for the structures.

Receptor-type tyrosine-protein kinase FLT3 (Homo sapiens), sequence (P36888 whole entry): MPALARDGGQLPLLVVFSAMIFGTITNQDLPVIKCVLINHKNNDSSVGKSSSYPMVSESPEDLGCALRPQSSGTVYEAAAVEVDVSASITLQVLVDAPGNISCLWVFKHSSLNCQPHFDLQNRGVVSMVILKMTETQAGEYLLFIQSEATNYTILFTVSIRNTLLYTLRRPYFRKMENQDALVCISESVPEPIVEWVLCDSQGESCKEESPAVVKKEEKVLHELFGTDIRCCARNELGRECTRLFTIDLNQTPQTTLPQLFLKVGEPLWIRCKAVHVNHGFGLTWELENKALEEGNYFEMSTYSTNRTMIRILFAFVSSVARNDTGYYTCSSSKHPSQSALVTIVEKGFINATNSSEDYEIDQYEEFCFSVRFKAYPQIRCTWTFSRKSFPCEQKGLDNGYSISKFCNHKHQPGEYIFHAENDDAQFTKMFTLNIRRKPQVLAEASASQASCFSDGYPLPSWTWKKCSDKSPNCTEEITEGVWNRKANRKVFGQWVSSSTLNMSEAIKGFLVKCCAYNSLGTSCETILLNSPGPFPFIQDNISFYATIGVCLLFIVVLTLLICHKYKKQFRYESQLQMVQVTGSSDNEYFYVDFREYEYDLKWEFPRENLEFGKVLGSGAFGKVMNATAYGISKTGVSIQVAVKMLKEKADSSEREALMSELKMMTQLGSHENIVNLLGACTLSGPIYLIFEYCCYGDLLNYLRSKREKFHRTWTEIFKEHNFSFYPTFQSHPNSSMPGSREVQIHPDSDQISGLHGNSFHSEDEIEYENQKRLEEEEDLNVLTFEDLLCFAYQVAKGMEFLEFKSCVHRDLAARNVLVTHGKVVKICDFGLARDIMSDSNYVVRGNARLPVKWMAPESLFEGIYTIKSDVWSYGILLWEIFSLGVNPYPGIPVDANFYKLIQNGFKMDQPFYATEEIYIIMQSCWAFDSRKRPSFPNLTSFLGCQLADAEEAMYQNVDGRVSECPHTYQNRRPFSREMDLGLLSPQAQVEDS
Tyrosine-protein kinase Blk (Homo sapiens), sequence (P51451 2-505 limits assumed): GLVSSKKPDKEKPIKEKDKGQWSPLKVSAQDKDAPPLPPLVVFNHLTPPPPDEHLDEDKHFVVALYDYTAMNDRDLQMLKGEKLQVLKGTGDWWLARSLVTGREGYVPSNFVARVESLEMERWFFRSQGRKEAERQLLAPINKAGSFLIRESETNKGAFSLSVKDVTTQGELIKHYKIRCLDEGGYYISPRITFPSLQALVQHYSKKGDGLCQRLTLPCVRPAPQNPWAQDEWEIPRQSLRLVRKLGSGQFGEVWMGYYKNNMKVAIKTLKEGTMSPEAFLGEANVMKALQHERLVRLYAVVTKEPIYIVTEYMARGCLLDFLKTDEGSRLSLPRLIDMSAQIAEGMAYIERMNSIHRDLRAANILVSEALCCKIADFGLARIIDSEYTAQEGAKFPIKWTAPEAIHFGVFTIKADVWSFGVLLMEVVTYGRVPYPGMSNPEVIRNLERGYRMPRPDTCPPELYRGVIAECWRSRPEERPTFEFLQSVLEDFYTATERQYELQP
Non-receptor tyrosine-protein kinase TYK2 (Homo sapiens), sequence (P29597 whole entry): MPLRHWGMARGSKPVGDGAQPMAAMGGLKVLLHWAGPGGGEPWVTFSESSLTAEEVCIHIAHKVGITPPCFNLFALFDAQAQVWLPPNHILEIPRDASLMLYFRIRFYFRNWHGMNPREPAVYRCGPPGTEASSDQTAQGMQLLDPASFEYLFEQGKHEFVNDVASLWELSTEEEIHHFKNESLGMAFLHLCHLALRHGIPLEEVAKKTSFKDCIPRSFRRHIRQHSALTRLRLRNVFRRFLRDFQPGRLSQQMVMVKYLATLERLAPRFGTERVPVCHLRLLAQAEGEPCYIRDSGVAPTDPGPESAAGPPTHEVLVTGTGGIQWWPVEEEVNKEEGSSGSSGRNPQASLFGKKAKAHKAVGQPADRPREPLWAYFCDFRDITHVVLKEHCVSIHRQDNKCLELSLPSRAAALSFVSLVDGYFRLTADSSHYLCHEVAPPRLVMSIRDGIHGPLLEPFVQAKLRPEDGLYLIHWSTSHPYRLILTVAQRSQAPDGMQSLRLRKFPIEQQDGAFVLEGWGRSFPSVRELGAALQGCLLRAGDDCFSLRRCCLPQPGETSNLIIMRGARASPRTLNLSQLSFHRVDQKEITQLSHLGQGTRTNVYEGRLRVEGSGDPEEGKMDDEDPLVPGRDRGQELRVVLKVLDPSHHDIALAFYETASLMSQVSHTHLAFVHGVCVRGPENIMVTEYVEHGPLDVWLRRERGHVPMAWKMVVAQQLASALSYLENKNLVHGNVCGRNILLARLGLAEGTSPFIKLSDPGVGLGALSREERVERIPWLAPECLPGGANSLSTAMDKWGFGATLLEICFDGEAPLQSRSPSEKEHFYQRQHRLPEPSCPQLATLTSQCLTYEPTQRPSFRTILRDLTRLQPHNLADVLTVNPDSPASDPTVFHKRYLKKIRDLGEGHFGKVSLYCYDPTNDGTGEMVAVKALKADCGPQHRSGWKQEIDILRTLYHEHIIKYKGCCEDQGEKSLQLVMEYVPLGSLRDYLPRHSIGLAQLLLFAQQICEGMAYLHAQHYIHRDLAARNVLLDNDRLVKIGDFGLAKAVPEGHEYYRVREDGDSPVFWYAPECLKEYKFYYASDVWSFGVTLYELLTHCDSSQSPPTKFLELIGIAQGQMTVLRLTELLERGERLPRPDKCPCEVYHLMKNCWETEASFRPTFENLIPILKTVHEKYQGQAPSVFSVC

Take `CC1=C(C#N)C(c2ccc3c(c2)c(NC(=O)c2ccccc2C)nn3C)C(C#N)=C(C)N1` [BAY-974]: the residual activity in assay [1] is 86%; in assay [2] it was 82%; in assay [3], 82%; in assay [4], 81%; in assay [5] it was 99%; in assay [6], 91%. Also, the residual activity in [7] is 89%; in assay [8], 99%; in assay [9], 91%; in [10], 77%; in assay [12], 85%; in [13], 30%. Also, the residual activity is 100% in assay [14]; 83% in [15]; 97% in [16]; 100% in [17]; 90% in assay [18]. For the same compound, in assay [11], the inhibition was 11.4%.

For the compound `CCc1ccccc1C(=O)Nc1n[nH]c2c(C)c(F)c(C3C(C#N)=C(C)N(C)C(C)=C3C#N)cc12` [BAY-3827], the residual activity in assay [1] is 100%; in assay [2], 100%; in assay [3], 100%; in [4] it was 100%; in assay [5] it was 82%; in [6], 77%. In addition, the residual activity in [7] is 100%; in [8] it was 100%; in [9], 89%; in [10], 100%; in assay [12], 100%; in assay [13] it was 100%. Moreover, the residual activity in [14] is 2.9%; in assay [15], 79%; in assay [16], 100%; in assay [17], 100%; in [18] it was 16%. Also, in [11], the inhibition is 2.66%.
